# Measurements published in paper PMC1968602 (British Journal of Cancer, 1993).
# Values joined by “and” are separate entries in the source; they are usually repeats but may differ in a detail not shown here. Equal values may be shown once. Read-outs that look alike come from different tables or passages of the source.
# Tests used:
# [1] = Plasma pharmacokinetics of CPT-11 and SN-38 (HPLC), day 8 of first cycle
# Protocol: (§1) All subjects gave written informed consent to the study. […] No intrapatient dose escalation was performed. […] Bone marrow aspiration was also performed in SCLC patients. […] Arrows indicate the com- pletion of infusion.
# [2] = test system: patients with advanced lung cancer
# Excerpt: All subjects gave written informed consent to the study. […] The study was approved in advance by this hospital's Institu- tional Review Board. […] Patients who stabilised or improved received at least a second course while patients with obvious evidence of disease progression were removed from the study. Before the next course was started, the leukocyte count had to be at least 4,000fil-', and the platelet count had to be at least 100,00011-. If more than 6 weeks passed from the time of the last treatment before these criteria were satisfied, the patients were removed from the study. No intrapatient dose escalation was performed. Once the maximum tolerated dose was reached (90 mg m-2), five additional patients were treated at the preceding dose level of 80mgm2. Evaluation The stage of disease was determined by a complete medical history and physical examination, routine chest radiography, whole-lung tomography, bone scintiscanning, computed tomography of the head, chest, and abdomen, and fiberoptic bronchoscopy. Bone marrow aspiration was also performed in SCLC patients. […] Prior to the first course of treatment, a complete blood count (includ- ing a differential white cell count and platelet count), biochemistry tests (renal and hepatic function, and elec- trolytes), and urinalysis were performed. Then the blood count, biochemistry tests, urinalysis, and chest X-rays were repeated at least once a week after this initial evaluation. Other investigations were repeated as necessary to evaluate marker lesions. After the completion of chemotherapy, each patient was restaged with all the tests used during the initial work-up. The eligibility, evaluability and response of each patient were assessed by extramural reviewers. […] The duration of each response was defined as the number of days from the documentation of response until tumour progression. ECOG common toxicity criteria were used to grade organ damage. The maximum tolerated dose was defined as the dose causing grade 3-4 nonhematologic toxicity (except nausea and vomiting) in at least one-third of the cycles and/or grade 3-4 hematologic toxicity in at least two-third of the cycles included at that level. […] The statistical significance of differ- ences in peak plasma concentrations (Cmax) was determined using unpaired, two-tailed Student's t test. Other statistical analysis was performed using Chi-square test or Fisher's exact test. A P value of less than 0.05 was considered to be statistically significant.
# [3] = ref Negoro et al., 1991a, cited from earlier work; for AUC of CPT-11: single agent weekly infusion
# [4] = test system: advanced lung cancer; experiment: Tumour response (World Health Organization criteria) to CPT-11 plus cisplatin; format: in vivo, human
# Protocol: as §1
# [5] = test system: patients with advanced NSCLC; conditions: ref Masuda et al., 1992b, cited from earlier work
# [6] = test system: diarrhea induced by this combination regimen; experiment: Antidiarrheal treatment of diarrhea induced by CPT-11 plus cisplatin; format: in vivo, human; conditions: for response of grade 3 diarrhea to antidiarrheal agent: diarrhea at CPT-11 90 mg m-2 plus cisplatin 60 mg m-2
# Protocol: as §1
# [7] = CPT-11 60 mg m-2 plus cisplatin 60 mg m-2, 3 patients
# [8] = CPT-11 80 mg m-2 plus cisplatin 60 mg m-2
# [9] = CPT-11 80 mg m-2 plus cisplatin 60 mg m-2, 8 patients
# [10] = CPT-11 90 mg m-2 plus cisplatin 60 mg m-2
# [11] = CPT-11 plus cisplatin 60 mg m-2, 28-day cycle
# [12] = all dose levels, CPT-11 plus cisplatin 60 mg m-2
# [13] = dose level 1 (CPT-11 60 mg m-2), individual responders
# [14] = dose level 2 (CPT-11 80 mg m-2)
# [15] = dose level 3 (CPT-11 90 mg m-2), one responder
molecule,measurement,setting,value
"CCc1c2c(nc3ccc(OC(=O)N4CCC(N5CCCCC5)CC4)cc13)-c1cc3c(c(=O)n1C2)COC(=O)[C@]3(O)CC [CPT-11, Irinotecan]",Elimination of CPT-11 from plasma,"[1]; after completion of infusion, two-compartment model",biphasic
same,"Grade 3 leukopenia, percentage of courses",[2]; CPT-11 60 mg m-2 plus cisplatin 60 mg m-2,33%
same,ECOG grade 3 or 4 diarrhea: number of patients exhibiting toxicity in the first course,[2]; [7],0
same,ECOG grade 3 or 4 leukopenia: number of patients exhibiting toxicity in the first course,[2]; [7],2
same,ECOG grade 3 or 4 diarrhea: no. of courses exhibiting toxicity in all courses,"[2]; CPT-11 60 mg m-2 plus cisplatin 60 mg m-2, 9 courses",0
same,"Grade 3 leukopenia, percentage of courses",[2]; [8],15%
same,grade 4 diarrhea,[2]; [8],no grade 4 diarrhea
same,ECOG grade 3 or 4 diarrhea: number of patients exhibiting toxicity in the first course,[2]; [9],2
same,ECOG grade 3 or 4 leukopenia: number of patients exhibiting toxicity in the first course,[2]; [9],2
same,ECOG grade 3 or 4 diarrhea: no. of courses exhibiting toxicity in all courses,"[2]; CPT-11 80 mg m-2 plus cisplatin 60 mg m-2, 20 courses",3
same,"skin rash (grade 1), number of patients","[2]; CPT-11 80 mg m-2 plus cisplatin 60 mg m-2, forced cessation of CPT-11 on day 15",one
same,"grade 3 diarrhea, percentage of cycles","[2]; CPT-11 80 mg m-2 plus cisplatin 60 mg m-2, three of 20 cycles",15%
same,"grade 3 diarrhea, percentage of patients","[2]; CPT-11 80 mg m-2 plus cisplatin 60 mg m-2, two of eight patients",25%
same,dose-limiting toxicity,[2]; CPT-11 90 mg m-2 dose level plus cisplatin 60 mg m-2,diarrhea
same,"Grade 3 leukopenia, percentage of courses",[2]; [10],0%
same,duration of grade 3 diarrhea,[2]; [10],2 to 3 weeks
same,grade 4 diarrhea,[2]; [10],no grade 4 diarrhea
same,ECOG grade 3 or 4 leukopenia: number of patients exhibiting toxicity in the first course,"[2]; CPT-11 90 mg m-2 plus cisplatin 60 mg m-2, 3 patients",0
same,maximum tolerated dose of CPT-11,"[2]; CPT-11 i.v. days 1, 8, 15 plus cisplatin 60 mg m-2 day 1, every 28 days",90 mg m-2
same,leukocyte nadir,[2]; [11],~21 days
same,recovery from leukocyte nadir in most patients,[2]; [11],≤ 29 days
same,recommended dose for Phase II studies,"[2]; CPT-11 days 1, 8, 15 plus cisplatin day 1 at 4-week intervals",80 mg m-2
same,"Grade 3 leukopenia, number of patients","[2]; all dose levels, CPT-11 60-90 mg m-2 plus cisplatin 60 mg m-2, 14 patients",five
same,"Grade 3 leukopenia, number of cycles","[2]; all dose levels, CPT-11 60-90 mg m-2 plus cisplatin 60 mg m-2, 33 courses",six
same,Hematologic toxicity,[2]; [12],relatively mild
same,"grade 4 leukopenia, patients",[2]; [12],none
same,"hepatic, renal, or pulmonary toxicity",[2]; [12],no evidence
same,"Grade 3 nausea and vomiting, percentage of courses","[2]; all dose levels, 10 of 33 courses",30%
same,"Grade 2 alopecia, percentage of courses","[2]; all dose levels, 15 of 33 courses",45%
same,"Transient eosinophilia ( > 10%), percentage of courses","[2]; all dose levels, seven of 33 courses",21%
same,"Grade 3 anaemia, percentage of courses","[2]; all dose levels, two occasions in 33 courses",6%
same,AUC of CPT-11,[3]; 50 mg m-2,2.97 ytg ml-' x hours
same,AUC of CPT-11,[3]; 100 mg m-2,6.37 ytg ml-' x hours
same,AUC of CPT-11,[3]; 125 mg m-2,9.17 ytg ml-' x hours
same,AUC of CPT-11,[3]; 150 mg m-2,11.29 ytg ml-' x hours
same,dose intensity achieved as a single agent,[3]; weekly intravenous infusion,100 mg m-2 per week
same,patients showing disease progression,[4]; all 14 patients,none
same,patients showing no change,[4]; all 14 patients,Eight
same,overall response rate,"[4]; all 14 patients, CPT-11 60-90 mg m-2 plus cisplatin 60 mg m-2",43%
same,Response duration,[4]; [13],85 days and 170 days
same,Time to remission,[4]; [13],42 days and 44 days
same,"No. of responders (%), response rate","[4]; dose level 1: CPT-11 60 mg m-2 plus cisplatin 60 mg m-2, two of three patients",67%
same,"Response duration, median (range)",[4]; [14],158 (92-208) days
same,"Time to remission, median (range)",[4]; [14],41 (30-42) days
same,"No. of responders (%), response rate","[4]; dose level 2: CPT-11 80 mg m-2 plus cisplatin 60 mg m-2, three of eight patients",38%
same,Response duration,[4]; [15],98 days
same,Time to remission,[4]; [15],30 days
same,"No. of responders (%), response rate","[4]; dose level 3: CPT-11 90 mg m-2 plus cisplatin 60 mg m-2, one of three patients",33%
same,partial responses,[4]; five of 14 patients,36%
same,response rate for NSCLC,[4]; four of 12 patients,33%
same,complete response,[4]; one of 14 patients,7%
same,"complete response, stage IIIB disease",[4]; one of seven patients,14%
same,"overall response rate, stage IIIB disease",[4]; seven patients,43%
same,"partial response, stage IV disease",[4]; three of seven patients,43%
same,"Response duration, median (range)","[4]; total, all dose levels",128 (85-208) days
same,"Time to remission, median (range)","[4]; total, all dose levels",42 (30-44) days
same,"partial responses, stage IIIB disease",[4]; two of seven patients,29%
same,response rate for SCLC,[4]; two of two patients,100%
same,response rate,"[5]; CPT-11 days 1, 8, 15 combined with 80 mg m-2 cisplatin day 1, 4-week intervals, advanced NSCLC",54%
same,dose-limiting toxicities,[5]; combined with 80 mg m-2 cisplatin,leukopenia and diarrhea
same,recommended dose of CPT-11,"[5]; in combination with 80 mg m-2 of cisplatin, days 1, 8, 15",60 mg m-2
"CCc1c2c(nc3ccc(O)cc13)-c1cc3c(c(=O)n1C2)COC(=O)[C@]3(O)CC [SN-38, 7-ethyl-10-hydroxycamptothecin]",AUC,"[1]; human, in vivo, 80 mg",216 ng·h/mL
same,AUC,"[1]; human, in vivo, 90 mg",340 ng·h/mL
same,"SN-38 terminal half-life, mean (s.d.)","[1]; human, in vivo, 90 mg",22.13 ? 13.28 h
same,half-life,"[1]; human, in vivo, 90 mg",22.1 ± 13.3 h
same,AUC of SN-38,[3]; single-agent CPT-11 50 mg m-2,117 ng ml-1 x hours
same,AUC of SN-38,[3]; single-agent CPT-11 125 mg m-2,252 ng ml-1 x hours
CN1[C@@H]2CC[C@H]1C[C@@H](OC(=O)C(CO)c1ccccc1)C2 (stereo partly drawn) [atropine],response of grade 3 diarrhea to antidiarrheal agent,[6],refractory
COc1ccc2c3c1O[C@H]1[C@@H](O)C=C[C@H]4[C@@H](C2)N(C)CC[C@@]341 [codeine phosphate],response of grade 3 diarrhea to antidiarrheal agent,[6],resistant
CN1[C@@H]2C[C@@H](OC(=O)[C@H](CO)c3ccccc3)C[C@H]1[C@@H]1O[C@@H]12 [scopolamine],response of grade 3 diarrhea to antidiarrheal agent,[6],refractory
albumin tannate,response of grade 3 diarrhea to antidiarrheal agent,[6],refractory
sandostatin,effect on grade 3 diarrhea induced by CPT-11 plus cisplatin,"[6]; 50-100 ug subcutaneously t.i.d. for at least 2 days, three patients",ineffective
